From patent US20230303569A1, “HETEROCYCLIC COMPOUNDS AS THERAPEUTIC AGENTS” (Arisan Therapeutics Inc., priority 2021, published 2023)
Read-outs that look alike come from different tables or passages of the source.

How the values were obtained:
Type in all cases: cell-based
[1] = molecular target: T1, human Nav1.5 (late current) (Homo sapiens, UniProt Q14524); test: Nav1.5 Late Current Assay (QPatch HT whole-cell patch clamp, 30 nM ATX-II); details: HEK293 cells stably expressing human Nav1.5, pH 7.3, late current with 30 nM ATX-II, read-out: percent inhibition hNav1.5 Late (5 uM)
T1 construct: host or cells: HEK293
Protocol: (§1) In vitro Na+ Current Inhibition Assays were performed by Eurofins Discovery (St Charles, MO). All compound functional activity determinations were determined through electrophysiological analyses of Na+ currents in HEK293 cells expressing a stably transfected Na+ channel (human Nav1.1, 1.2, 1.3, 1.5, 1.6, 1.7, or 1.8). After harvesting with Accutase cells are maintained in serum free medium at room temperature prior to electrophysiological recording utilizing the QPatch HT automated whole-cell patch-clamp platform (Sophion Bioscience, Woburn MA). Stock solution aliquots of the test compound are prepared in DMSO at 300× the final assay concentrations, and stored at −20° C. until the day of assay. On the day of the assay, an aliquot of the stock solution is thawed and diluted into external solution (137 mM NaCl, 4 mM KCl, 1 mM MgCl2, 1.8 mM CaCl2, 10 mM HEPES, 10 mM Glucose (pH 7.3, titrated with 10M NaOH) to make final test concentrations. A final concentration of 0.33% DMSO is maintained for each concentration of the assay compounds. Internal solution for recordings of Na+ consist consists of 100 mM CsF, 45 mM CsCl, 5 mM NaCl, 10 mM HEPES, 5 mM EGTA (pH 7.3, titrated with 1M CsOH).
Onset and steady state induction of late Nav1.5 current was measured using a pulse pattern, repeated every 5 sec, consisting of a hyperpolarizing pulse to −120 mV for a 200 ms duration, depolarization to −15 mV amplitude for a 40 ms duration, followed by step to 40 mV for 200 ms and finally a 100 ms ramp (1.2 V/s) to a holding potential of −80 mV. Each concentration of compound was applied for 5 minutes. The assay was performed at room temperature. After establishing vehicle control condition, all further addition of external solutions contain 30 nM ATX-II to activate late currents. Each concentration of compound was also co-applied with 30 nM ATXII to estimate the Nav1.5 late current inhibition. […]. ATXII was used as the agonist positive control and was tested concurrently with the test compound. Ranolazine was used as the positive control and was tested concurrently with the test compound.
Nav1.5 late current was measured as the total charge flowing through the Nav1.5 channels (area under the curve) 5 ms after the Nav1.5 peak current till the end of the test pulse and as charge at their maxima during the ramp. Individual cell results were normalized to their respective vehicle control and the results were averaged. The sodium current was assessed in 30 nM ATXII as vehicle control conditions and then at the end of each five (5) minute compound application in the presence of 30 nM ATXII. Individual cell result was normalized to 30 nM ATXII vehicle control amplitude and the mean±SEM calculated for each compound concentration.

[2] = molecular target: T2, human Nav1.5 (pulse 2, state-dependent inhibition) (Homo sapiens, UniProt Q14524); test: Two pulse assay protocol, Nav1.5; details: HEK293 cells stably expressing human Nav1.5, pH 7.3, peak current, pulse 2 (state-dependent), read-out: percent inhibition hNav1.5, Pulse 2 (5 uM)
T2 construct: host or cells: HEK293
T2 sequence (Q14524 whole entry): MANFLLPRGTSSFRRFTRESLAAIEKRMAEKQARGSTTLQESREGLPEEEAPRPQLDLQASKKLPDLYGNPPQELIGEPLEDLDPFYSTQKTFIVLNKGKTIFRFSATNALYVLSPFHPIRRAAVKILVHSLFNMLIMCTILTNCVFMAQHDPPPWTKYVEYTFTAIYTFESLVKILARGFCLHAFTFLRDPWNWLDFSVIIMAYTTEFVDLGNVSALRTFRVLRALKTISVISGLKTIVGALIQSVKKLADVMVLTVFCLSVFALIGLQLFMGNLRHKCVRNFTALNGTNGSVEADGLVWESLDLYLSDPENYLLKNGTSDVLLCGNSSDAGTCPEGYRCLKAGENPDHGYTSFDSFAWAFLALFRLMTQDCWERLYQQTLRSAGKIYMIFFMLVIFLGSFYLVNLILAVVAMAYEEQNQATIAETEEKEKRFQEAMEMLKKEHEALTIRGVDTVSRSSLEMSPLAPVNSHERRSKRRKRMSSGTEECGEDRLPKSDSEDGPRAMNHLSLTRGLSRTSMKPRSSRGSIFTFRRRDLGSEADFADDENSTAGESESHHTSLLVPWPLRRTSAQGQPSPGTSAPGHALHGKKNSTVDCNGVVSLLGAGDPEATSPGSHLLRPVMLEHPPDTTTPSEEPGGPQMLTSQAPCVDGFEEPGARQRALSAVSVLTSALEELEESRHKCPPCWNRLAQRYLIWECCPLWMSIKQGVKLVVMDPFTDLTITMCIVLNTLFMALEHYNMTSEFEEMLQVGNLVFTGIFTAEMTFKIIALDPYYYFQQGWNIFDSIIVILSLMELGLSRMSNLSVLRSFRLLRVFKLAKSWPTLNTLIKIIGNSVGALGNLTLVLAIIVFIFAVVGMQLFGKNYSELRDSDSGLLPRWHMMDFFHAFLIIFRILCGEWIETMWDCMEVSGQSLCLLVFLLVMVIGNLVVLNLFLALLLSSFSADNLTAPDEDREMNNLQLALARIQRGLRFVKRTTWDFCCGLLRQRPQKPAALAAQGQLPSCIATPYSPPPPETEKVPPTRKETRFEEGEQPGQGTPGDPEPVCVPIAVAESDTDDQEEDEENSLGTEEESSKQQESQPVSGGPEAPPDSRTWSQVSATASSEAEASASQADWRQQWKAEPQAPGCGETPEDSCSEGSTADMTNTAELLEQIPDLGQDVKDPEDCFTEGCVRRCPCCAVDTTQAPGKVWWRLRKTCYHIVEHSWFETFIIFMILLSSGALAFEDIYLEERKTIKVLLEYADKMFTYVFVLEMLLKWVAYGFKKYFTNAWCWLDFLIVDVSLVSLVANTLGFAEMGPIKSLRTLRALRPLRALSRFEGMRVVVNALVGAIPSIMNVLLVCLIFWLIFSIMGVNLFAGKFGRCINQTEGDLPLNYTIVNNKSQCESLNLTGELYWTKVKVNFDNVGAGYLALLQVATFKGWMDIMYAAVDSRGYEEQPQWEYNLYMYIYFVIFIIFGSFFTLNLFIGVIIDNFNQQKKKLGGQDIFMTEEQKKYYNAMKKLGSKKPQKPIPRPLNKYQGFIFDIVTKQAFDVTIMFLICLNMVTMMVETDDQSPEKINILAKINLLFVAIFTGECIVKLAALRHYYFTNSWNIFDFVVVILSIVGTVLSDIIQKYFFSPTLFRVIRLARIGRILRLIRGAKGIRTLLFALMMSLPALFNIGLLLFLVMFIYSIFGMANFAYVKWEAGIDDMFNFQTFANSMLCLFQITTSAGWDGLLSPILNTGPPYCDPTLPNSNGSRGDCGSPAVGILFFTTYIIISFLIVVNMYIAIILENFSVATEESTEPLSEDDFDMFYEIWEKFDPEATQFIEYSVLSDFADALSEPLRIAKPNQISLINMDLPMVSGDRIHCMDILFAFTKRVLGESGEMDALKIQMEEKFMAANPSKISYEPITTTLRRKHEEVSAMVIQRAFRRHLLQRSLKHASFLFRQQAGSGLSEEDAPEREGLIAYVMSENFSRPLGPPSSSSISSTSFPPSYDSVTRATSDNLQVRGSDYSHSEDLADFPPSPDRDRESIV
Protocol: as §1
(§2) Two pulse assay protocol for human Nav1.1, 1.2, 1.3, 1.5, 1.6, 1.7, and 1.8 channels. Mammalian cultured cells expressing the indicated human Nav1.1, 1.2, 1.3, 1.5, 1.6, 1.7 or 1.8 channels were assayed using the The QPatch HT (Sophion Bioscience, Woburn MA) automated system with an intracellular solution (mM) of 100 CsF, 45 CsCl, 5 NaCl, 10 HEPES, 5 EGTA (pH 7.3, titrated with 1M CsOH) and extracellular solution (mM) of 137 NaCl, 4 KCl, 1 MgCl2, 1.8 CaCl2, 10 HEPES, 10 Glucose (pH 7.3, titrated with 10M NaOH). Onset and steady state block of the sodium channel was measured using a pulse pattern, repeated every 20 seconds (s) from a holding potential of −120 mV for 100 ms, and then pulsed to 0 mV for 500 ms to inactivate the Na channels and facilitate inactivated state-dependent binding of the test compounds. The cell membranes were then stepped back to −120 mV for 10 ms to recover from inactivation into resting or closed state (channels with test compound bound to them will not recover from inactivation and will not open) before stepping to 0 mV for 50 ms (pulse 2) to measure Na channels that are available to open. Peak current was measured during the step to 0 mV at pulse 1 and 2 to measure tonic and state-dependent inhibition. Compound activities were assessed by dividing post current amplitude (at the end of each five (5) minute compound application) by the vehicle control amplitude and the mean calculated for each compound concentration. Tetracaine was used as a positive control and was tested concurrently with the test compounds. Current amplitudes in excess of 200 pA at the control stage were analyzed. The amplitude of the current was calculated by measuring the difference between the peak inward current on stepping to 0 mV (i.e. peak of the current) and remaining current at the end of the step. The current was assessed in vehicle control conditions and then at the end of each five (5) minute compound application.

[3] = molecular target: T3, human Nav1.5 (pulse 1, tonic inhibition) (Homo sapiens, UniProt Q14524); test: Two pulse assay protocol, Nav1.5; details: HEK293 cells stably expressing human Nav1.5, pH 7.3, peak current, pulse 1 (tonic), read-out: percent inhibition hNav1.5, Pulse 1 (5 uM)
T3 construct: host or cells: HEK293
T3 sequence (Q14524 whole entry): as above
Protocol: as §1, §2

human Nav1.7 = molecular target: T4, human Nav1.7 (Homo sapiens, UniProt Q15858); test: Two pulse assay protocol, Nav1.7; details: peak current
T4 construct: host or cells: HEK293
Protocol: as §1, §2

human Nav1.6 = molecular target: T5, human Nav1.6 (Homo sapiens, UniProt Q9UQD0); test: Two pulse assay protocol, Nav1.6; details: peak current
T5 construct: host or cells: HEK293
Protocol: as §1, §2

human Nav1.8 = molecular target: T6, human Nav1.8 (Homo sapiens, UniProt Q9Y5Y9); test: Two pulse assay protocol, Nav1.8; details: peak current
T6 construct: host or cells: HEK293
Protocol: as §1, §2

[4] = pulse 1 (tonic), read-out: percent inhibition hNav1.7, Pulse 1 (5 uM)
[5] = pulse 2 (state-dependent), read-out: percent inhibition hNav1.7, Pulse 2 (5 uM)
[6] = pulse 1 (tonic), read-out: percent inhibition hNav1.6, Pulse 1 (5 uM)
[7] = pulse 2 (state-dependent), read-out: percent inhibition hNav1.6, Pulse 2 (5 uM)
[8] = pulse 1 (tonic), read-out: percent inhibition hNav1.8, Pulse 1 (5 uM)
[9] = pulse 2 (state-dependent), read-out: percent inhibition hNav1.8, Pulse 2 (5 uM)

COc1cc2ncc(-c3ccc(OC(C)C)cc3)n2cc1-c1ccc(OC(C)C)cc1 [Example C49, 7-methoxy-3,6-bis[4-(propan-2-yloxy)phenyl]imidazo[1,2-a]pyridine]
inhibition at 5 min, 5 uM [1]: < 50%

CC(C)Oc1ccc(-c2cnc3ccc(-c4ccc(OC(C)C)c(F)c4)cn23)cc1 [Example C24, 6-[3-fluoro-4-(propan-2-yloxy)phenyl]-3-[4-(propan-2-yloxy)phenyl]imidazo[1,2-a]pyridine]
inhibition at 5 min, 5 µM [2]: > 90% | inhibition at 5 min, 5 µM [3]: < 50% | inhibition at 5 µM (human Nav1.7; [4]): < 50% | inhibition at 5 µM (human Nav1.7; [5]): 50 to 90% | inhibition at 5 µM (human Nav1.6; [6]): < 50% | inhibition at 5 µM (human Nav1.6; [7]): > 90%

CC(C)Oc1ccc(-c2ccc3ncc(-c4ccc(OC(F)F)cc4)n3c2)cc1 [Example C40, 3-[4-(difluoromethoxy)phenyl]-6-[4-(propan-2-yloxy)phenyl]imidazo[1,2a]pyridine]
inhibition at 5 min, 5 uM [1]: < 50%

CC(C)Oc1ccc(-c2cnc3ccc(-c4ccc(C5(N)CC5)cc4)cn23)cc1 [Example C15, 1-(4-{3-[4-(propan-2-yloxy)phenyl]imidazo[1,2-a]pyridin-6-yl}phenyl)cyclopropan-1-amine]
inhibition at 5 min, 5 uM [1]: < 50%

CC(C)Oc1ccc(-c2cn3c(-c4ccc(OC(C)C)cc4)cnc3cc2C#N)cc1 [Example C52, 3,6-bis(4-isopropoxyphenyl)imidazo[1,2-a]pyridine-7-carbonitrile]
inhibition at 5 min, 5 uM [1]: < 50%

CC(C)Oc1ccc(-c2cnc3ccc(-c4cnn(C5CC5)c4)cn23)cc1 [Example C17, 1-cyclopropyl-4-{3-[4-(propan-2-yloxy)phenyl]imidazo[1,2-a]pyridin-6-yl}-1H-pyrazole]
inhibition at 5 min, 5 uM [1]: < 50%

CC(C)Oc1ccc(-c2ccc3ncc(-c4cccc(OC(C)C)c4)n3c2)cc1 [Example C35, 3-[3-(propan-2-yloxy)phenyl]-6-[4-(propan-2-yloxy)phenyl]imidazo[1,2-a]pyridine]
inhibition at 5 min, 5 uM [1]: > 90%

CC(C)Oc1ccc(-c2ccc3ncc(-c4ccc(C(C)(C)C)cc4)n3c2)cc1 [Example C87, 3-(4-(tert-butyl)phenyl)-6-(4-isopropoxyphenyl)imidazo[1,2-a]pyridine]
inhibition at 5 min, 5 µM [2]: > 90% | inhibition at 5 min, 5 µM [3]: < 50% | inhibition at 5 µM (human Nav1.7; [4]): < 50% | inhibition at 5 µM (human Nav1.7; [5]): > 90% | inhibition at 5 µM (human Nav1.6; [6]): < 50% | inhibition at 5 µM (human Nav1.6; [7]): > 90%

CS(=O)(=O)NC(=O)c1cc2ncc(-c3ccc(OC(F)(F)F)cc3)n2cc1-c1ccccc1 [Example C68, N-(methylsulfonyl)-6-phenyl-3-(4-(trifluoromethoxy)phenyl)imidazo[1,2-a]pyridine-7-carboxamide]
inhibition at 5 min, 5 µM [2]: < 50% | inhibition at 5 min, 5 µM [3]: < 50% | inhibition at 5 µM (human Nav1.8; [8]): < 50% | inhibition at 5 µM (human Nav1.8; [9]): < 50% | inhibition at 5 µM (human Nav1.7; [4]): < 50% | inhibition at 5 µM (human Nav1.7; [5]): < 50%

CS(=O)(=O)NC(=O)c1ccn2c(-c3ccc(OC(F)(F)F)cc3)cnc2c1 [Example C66, N-(methylsulfonyl)-3-(4-(trifluoromethoxy)phenyl)imidazo[1,2-a]pyridine-7-carboxamide]
inhibition at 5 min, 5 µM [2]: < 50% | inhibition at 5 min, 5 µM [3]: < 50% | inhibition at 5 µM (human Nav1.8; [8]): < 50% | inhibition at 5 µM (human Nav1.8; [9]): < 50% | inhibition at 5 µM (human Nav1.7; [4]): < 50% | inhibition at 5 µM (human Nav1.7; [5]): < 50%

Cc1cc(-c2cnc3ccc(-c4ccc(OC(C)C)cc4)cn23)cnc1OC(C)C [Example C71, 3-(6-isopropoxy-5-methylpyridin-3-yl)-6-(4-isopropoxyphenyl)imidazo[1,2-a]pyridine]
inhibition at 5 min, 5 µM [2]: > 90% | inhibition at 5 min, 5 µM [3]: < 50% | inhibition at 5 µM (human Nav1.7; [4]): < 50% | inhibition at 5 µM (human Nav1.7; [5]): > 90% | inhibition at 5 µM (human Nav1.6; [6]): < 50% | inhibition at 5 µM (human Nav1.6; [7]): > 90%

CC(C)Oc1ccc(-c2ccc3ncc(-c4ccc(C(C)(C)C)nc4)n3c2)cc1 [Example C89, 3-(6-(tert-butyl)pyridin-3-yl)-6-(4-isopropoxyphenyl)imidazo[1,2-a]pyridine]
inhibition at 5 min, 5 µM [2]: 50 to 90% | inhibition at 5 min, 5 µM [3]: < 50% | inhibition at 5 µM (human Nav1.7; [4]): < 50% | inhibition at 5 µM (human Nav1.7; [5]): > 90% | inhibition at 5 µM (human Nav1.6; [6]): < 50% | inhibition at 5 µM (human Nav1.6; [7]): > 90%

COc1cc(OC)cc(-c2ccc3ncc(-c4ccc(OC(F)(F)F)cc4)n3c2)c1 [Example C58, 6-(3,5-dimethoxyphenyl)-3-(4-(trifluoromethoxy)phenyl)imidazo[1,2-a]pyridine]
inhibition at 5 µM (human Nav1.8; [8]): 50 to 90% | inhibition at 5 µM (human Nav1.8; [9]): 50 to 90% | inhibition at 2.5 µM (human Nav1.6; pulse 1 (tonic), read-out: percent inhibition hNav1.6, Pulse 1 (2.5 uM)): < 50% | inhibition at 2.5 µM (human Nav1.6; pulse 2 (state-dependent), read-out: percent inhibition hNav1.6, Pulse 2 (2.5 uM)): > 90%

Cc1cc2ncc(-c3ccc(C(C)(C)O)cc3)n2cc1-c1ccc(OC(C)C)cc1 [Example C56, 2-(4-(6-(4-isopropoxyphenyl)-7-methylimidazo[1,2-a]pyridin-3-yl)phenyl)propan-2-ol]
inhibition at 5 min, 5 uM [1]: < 50%

CC(C)Oc1ccc(-c2cnc3ccc(-c4ccc(OC(F)F)cc4)cn23)cc1 [Example C4, 6-[4-(difluoromethoxy)phenyl]-3-[4-(propan-2-yloxy)phenyl]imidazo[1,2-a]pyridine]
inhibition at 5 min, 5 uM [1]: > 90%

CC(C)Oc1ccc(-c2cnc3ccc(-c4ccc(C(N)=O)cc4)cn23)cc1 [Example C16, 4-{3-[4-(propan-2-yloxy)phenyl]imidazo[1,2-a]pyridin-6-yl}benzamide]
inhibition at 5 min, 5 uM [1]: < 50%

CC(C)Oc1ccc(-c2ccc3ncc(-c4ccc(OC(C)(C)C)nc4)n3c2)cc1 [Example C90, 3-(6-(tert-butoxy)pyridin-3-yl)-6-(4-isopropoxyphenyl)imidazo[1,2-a]pyridine]
inhibition at 5 min, 5 µM [2]: > 90% | inhibition at 5 min, 5 µM [3]: < 50% | inhibition at 5 µM (human Nav1.7; [4]): < 50% | inhibition at 5 µM (human Nav1.7; [5]): > 90% | inhibition at 5 µM (human Nav1.6; [6]): < 50% | inhibition at 5 µM (human Nav1.6; [7]): > 90%
